US20230115350A1 (Cedilla Therapeutics, Inc., priority 2021, published 2023)

biological target: TEAD1 protein (YAP Binding Domain) (Homo sapiens, UniProt P28347); assay: TEAD1 lipid pocket compound displacement assay (TR-FRET, Cy5-probe); conditions: 60 minutes incubation at room temperature; TR-FRET 665 nm/620 nm; read-out: CDA IC50
Description: Compound Displacement Assay.
A TEAD1 lipid pocket displacement assay was carried out according to the following protocol. Purified His-tagged TEAD1 protein (YAP Binding Domain) was pre-mixed with a Cy5-probe (Cy5-conjugated to a small molecule that binds in the TEAD1 lipid pocket) and Terbium-labeled anti-His antibody (Cisbio Cat 61HI2TLB). The binding of the Cy5-probe to anti-His-Tb/His-tag TEAD1 complex yielded a TR-FRET signal. […] After 60 minutes incubation at room temperature of compounds with the His-TEAD1/anti-His-Tb/Cy5-probe complex, the plate was read on a plate reader (BMG ClarioStar Cat 430-1300) using TR-FRET mode with wavelengths of 665 nm/620 nm. The potency of compounds as TEAD1 lipid pocket binders was determined by IC50 value generated using a non-linear 4 parameter curve fit.

TEAD1 protein (YAP Binding Domain), sequence (P28347 209-426 limits assumed): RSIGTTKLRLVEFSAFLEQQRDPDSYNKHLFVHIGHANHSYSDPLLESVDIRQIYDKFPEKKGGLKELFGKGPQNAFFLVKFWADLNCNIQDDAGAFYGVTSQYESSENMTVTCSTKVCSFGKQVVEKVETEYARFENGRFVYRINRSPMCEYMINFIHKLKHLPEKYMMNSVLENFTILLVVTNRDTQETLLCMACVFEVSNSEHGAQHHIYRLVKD

`C=CC(=O)Nc1ccc(OCc2cccc(F)c2)c(C2CC2)c1` [Compound 2, N-(3-cyclopropyl-4-((3-fluorobenzyl)oxy)phenyl)acrylamide] and `C=CC(=O)Nc1ccc(OCc2cccc(F)c2)c(Cl)c1` [Compound 46, N-(3-chloro-4-((3-fluorobenzyl)oxy)phenyl)acrylamide] cannot be ordered by IC50: 0.25 to 0.5 µM for the first, ≤ 0.25 µM for the second.

Compared with `C=CC(=O)Nc1ccc(OCc2cccc(F)c2)cc1C1CC1` [Compound 4, N-(2-cyclopropyl-4-((3-fluorobenzyl)oxy)phenyl)acrylamide], `C=CC(=O)Nc1ccc(OCc2cccc(F)c2)cc1CC1CC1` [Compound 16, N-(2-(cyclopropylmethyl)-4-((3-fluorobenzyl)oxy)phenyl)acrylamide] is higher in IC50: 0.25 to 0.5 µM for the first, > 2 µM for the second.

First: C=CC(=O)Nc1ccc2c(c1)CCC(c1cccc(F)c1)O2 (stereo not shown) [Compound 5, N-(2-(3-fluorophenyl)chroman-6-yl)acrylamide]
Second: C=CC(=O)Nc1ccc2c(c1)OCC(c1cccc(F)c1)O2 (stereo not shown) [Compound 8, N-(2-(3-fluorophenyl)-2,3-dihydrobenzo[b][1,4]dioxin-6-yl)acrylamide]
The IC50 of the first is higher: > 2 µM for the first, 0.25 to 0.5 µM for the second. The second is the more potent here.

`C=CC(=O)Nc1ccc(OCc2cccc(F)c2)c(OC)c1` [Compound 6, N-(4-((3-fluorobenzyl)oxy)-3-methoxyphenyl)acrylamide] and `C=CC(=O)Nc1ccc(OCc2cccc(F)c2)cc1OC` [Compound 7, N-(4-((3-fluorobenzyl)oxy)-2-methoxyphenyl)acrylamide] cannot be ordered by IC50: 0.25 to 0.5 µM for the first, ≤ 0.25 µM for the second.

`C=CC(=O)Nc1ccc2c(c1)NCC(c1cccc(F)c1)O2` (stereo not shown) [Compound 10, N-(2-(3-fluorophenyl)-3,4-dihydro-2H-benzo[b][1,4]oxazin-6-yl)acrylamide] and `C=CC(=O)Nc1ccc2c(c1)N(C)CC(c1cccc(F)c1)O2` (stereo not shown) [Compound 12, N-(2-(3-fluorophenyl)-4-methyl-3,4-dihydro-2H-benzo[b][1,4]oxazin-6-yl)acrylamide] cannot be ordered by IC50: > 2 µM for the first, > 2 µM for the second.

First: C=CC(=O)Nc1ccc(OCc2cccc(F)c2)cc1CC(N)=O [Compound 11, N-(2-(2-amino-2-oxoethyl)-4-((3-fluorobenzyl)oxy)phenyl)acrylamide]
Second: C=CC(=O)Nc1ccc(OCc2cccc(F)c2)cc1C [Compound 47, N-(4-((3-fluorobenzyl)oxy)-2-methylphenyl)acrylamide]
The IC50 of the first is higher: > 2 µM for the first, 0.5 to 2 µM for the second.

`C=CC(=O)Nc1ccc(OCc2cccc(F)c2)cc1Cc1ccncc1` [Compound 13, N-(4-((3-fluorobenzyl)oxy)-2-(pyridin-4-ylmethyl)phenyl)acrylamide] and `C=CC(=O)Nc1ccc(N(Cc2ccncc2)Cc2cccc(F)c2)c(F)c1` [Compound 18, N-(3-fluoro-4-((3-fluorobenzyl)(pyridin-4-ylmethyl)amino)phenyl)acrylamide] cannot be ordered by IC50: > 2 µM for the first, > 2 µM for the second.

First: C=CC(=O)Nc1ccc(OCc2cccc(F)c2)c2c1CCCO2 [Compound 14, N-(8-((3-fluorobenzyl)oxy)chroman-5-yl)acrylamide]
Second: C=CC(=O)Nc1ccc(OCc2cccc(F)c2)c2c1CCCC2 [Compound 15, N-(4-((3-fluorobenzyl)oxy)-5,6,7,8-tetrahydronaphthalen-1-yl)acrylamide]
The IC50 of the first is higher: > 2 µM for the first, 0.25 to 0.5 µM for the second. The second is the more potent here.

Going from `C=CC(=O)Nc1ccc(N(Cc2cccc(F)c2)CC2CC2)c(F)c1` [Compound 17, N-(4-((cyclopropylmethyl)(3-fluorobenzyl)amino)-3-fluorophenyl)acrylamide] to `C=CC(=O)Nc1ccc(OCc2cccc(F)c2)cc1` [Compound 44, N-(4-((3-fluorobenzyl)oxy)phenyl)acrylamide], the IC50 rises from ≤ 0.25 µM to > 2 µM.

`C#Cc1cccc(COc2ccc(NC(=O)C=C)cc2F)c1` [Compound 25, N-(4-((3-ethynylbenzyl)oxy)-3-fluorophenyl)acrylamide] and `C=CC(=O)Nc1ccc(OCc2cccc(Cl)c2)c(F)c1` [Compound 90, N-(4-((3-chlorobenzyl)oxy)-3-fluorophenyl)acrylamide] cannot be ordered by IC50: 0.25 to 0.5 µM for the first, ≤ 0.25 µM for the second.

First: Fc1cc(-c2nnn[nH]2)ccc1OCC1CCC(F)(F)CC1 [Compound 29, 5-(4-((4,4-difluorocyclohexyl)methoxy)-3-fluorophenyl)-1H-tetrazole]
Second: O=C(O)c1ccc(OCC2CCC(F)(F)CC2)c(F)c1 [Compound 35, 4-((4,4-difluorocyclohexyl)methoxy)-3-fluorobenzoic acid]
The IC50 of the first is higher: 0.5 to 2 µM for the first, 0.25 to 0.5 µM for the second.

`C=CC(=O)Nc1ccc(OC(C)C2CCC(F)(F)CC2)c(F)c1` (stereo not shown) [Compound 30, N-(4-(1-(4,4-difluorocyclohexyl)ethoxy)-3-fluorophenyl)acrylamide] and `C=CC(=O)Nc1ccc(OCC2CCC(F)(F)CC2)c(C)c1` [Compound 48, N-(4-((4,4-difluorocyclohexyl)methoxy)-3-methylphenyl)acrylamide] cannot be ordered by IC50: 0.25 to 0.5 µM for the first, ≤ 0.25 µM for the second.

`C=CC(=O)Nc1ccc(NC(=O)C2CCC(F)(F)CC2)c(F)c1` [Compound 32, N-(4-acrylamido-2-fluorophenyl)-4,4-difluorocyclohexanecarboxamide] and `C=CS(=O)(=O)Nc1ccc(OCC2CCC(F)(F)CC2)c(F)c1` [Compound 34, N-(4-((4,4-difluorocyclohexyl)methoxy)-3-fluorophenyl) ethene sulfonamide] cannot be ordered by IC50: ≤ 0.25 µM for the first, ≤ 0.25 µM for the second.

`CS(=O)(=O)Nc1ccc(OCC2CCC(F)(F)CC2)c(F)c1` [Compound 33, N-(4-((4,4-difluorocyclohexyl)methoxy)-3-fluorophenyl)methane sulfonamide] and `O=C(NS(=O)(=O)C1CC1)c1ccc(OCC2CCC(F)(F)CC2)c(F)c1` [Compound 37, N-(cyclopropylsulfonyl)-4-((4,4-difluorocyclohexyl)methoxy)-3-fluorobenzamide] fall in the same range of IC50: 0.5 to 2 µM for the first, 0.5 to 2 µM for the second.

Compared with `O=C(O)c1ccc(F)c(OCC2CCC(F)(F)CC2)c1` [Compound 36, 3-((4,4-difluorocyclohexyl)methoxy)-4-fluorobenzoic acid], `C=CC(=O)Nc1ccc(OCc2cnc(C)s2)c(F)c1` [Compound 64, N-(3-fluoro-4-((2-methylthiazol-5-yl)methoxy)phenyl)acrylamide] is higher in IC50: 0.25 to 0.5 µM for the first, > 2 µM for the second.

First: C=CC(=O)Nc1ccc(OCc2ccccc2)c(F)c1 [Compound 52, N-(4-(benzyloxy)-3-fluorophenyl)acrylamide]
Second: C=CC(=O)Nc1ccc(OCc2cccnc2)c(F)c1 [Compound 56, N-(3-fluoro-4-(pyridin-3-ylmethoxy)phenyl)acrylamide]
The IC50 of the first is lower: 0.25 to 0.5 µM for the first, > 2 µM for the second. The first is the more potent here.

First: C=CC(=O)Nc1ccc(OCc2cnccc2Cl)c(F)c1 [Compound 57, N-(4-((4-chloropyridin-3-yl)methoxy)-3-fluorophenyl)acrylamide]
Second: C=CC(=O)Nc1ccc(OCc2cc(Cl)ccc2Cl)c(F)c1 [Compound 79, N-(4-((2,5-dichlorobenzyl)oxy)-3-fluorophenyl)acrylamide]
The IC50 of the first is higher: > 2 µM for the first, 0.5 to 2 µM for the second.

First: C=CC(=O)Nc1ccc(OCc2ccsc2Cl)c(F)c1 [Compound 61, N-(4-((2-chlorothiophen-3-yl)methoxy)-3-fluorophenyl)acrylamide]
Second: C=CC(=O)Nc1ccc(OCc2c(Cl)cccc2Cl)c(F)c1 [Compound 86, N-(4-((2,6-dichlorobenzyl)oxy)-3-fluorophenyl)acrylamide]
The IC50 of the first is lower: 0.5 to 2 µM for the first, > 2 µM for the second.

First: C=CC(=O)Nc1ccc(OCc2ccc(C(=O)OC)s2)c(F)c1 [Compound 62, methyl 5-((4-acrylamido-2-fluorophenoxy)methyl)thiophene-2-carboxylate]
Second: C=CC(=O)Nc1ccc(OCc2ccc(C(=O)OC)nc2)c(F)c1 [Compound 70, methyl 5-((4-acrylamido-2-fluorophenoxy)methyl)picolinate]
The IC50 of the first is lower: 0.5 to 2 µM for the first, > 2 µM for the second.

`C=CC(=O)Nc1ccc(OCc2oc(=O)oc2C)c(F)c1` [Compound 65, N-(3-fluoro-4-((5-methyl-2-oxo-1,3-dioxol-4-yl)methoxy)phenyl)acrylamide] and `C=CC(=O)Nc1ccc(OCc2ccc(C)nc2)c(F)c1` [Compound 69, N-(3-fluoro-4-((6-methylpyridin-3-yl)methoxy)phenyl)acrylamide] cannot be ordered by IC50: > 2 µM for the first, > 2 µM for the second.

First: C=CC(=O)Nc1ccc(OCc2ccncc2)c(F)c1 [Compound 66]
Second: C=CC(=O)Nc1ccc(OCc2ccc(Br)nc2)c(F)c1 [Compound 68, N-(4-((6-bromopyridin-3-yl)methoxy)-3-fluorophenyl)acrylamide]
The IC50 of the first is higher: > 2 µM for the first, 0.5 to 2 µM for the second.

`C=CC(=O)Nc1ccc(OCc2ccnc(C#N)c2)c(F)c1` [Compound 67, N-(4-((2-cyanopyridin-4-yl)methoxy)-3-fluorophenyl)acrylamide] and `C=CC(=O)Nc1ccc(OCc2ccc(C#N)cc2Cl)c(F)c1` [Compound 77, N-(4-((2-chloro-4-cyanobenzyl)oxy)-3-fluorophenyl)acrylamide] cannot be ordered by IC50: > 2 µM for the first, > 2 µM for the second.

Compared with `C=CC(=O)Nc1ccc(OCc2cccnc2C)c(F)c1` [Compound 75, N-(3-fluoro-4-((2-methylpyridin-3-yl)methoxy)phenyl)acrylamide], `C=CC(=O)Nc1ccc(OCc2cc(OC)ccc2Cl)c(F)c1` [Compound 88, N-(4-((2-chloro-5-methoxybenzyl)oxy)-3-fluorophenyl)acrylamide] is lower in IC50: > 2 µM for the first, 0.25 to 0.5 µM for the second.

`C=CC(=O)Nc1ccc(OCc2ccc(C(F)(F)F)cc2Cl)c(F)c1` [Compound 81, N-(4-((2-chloro-4-(trifluoromethyl)benzyl)oxy)-3-fluorophenyl)acrylamide] and `C=CC(=O)Nc1ccc(OCc2c(F)cccc2Cl)c(F)c1` [Compound 85, N-(4-((2-chloro-6-fluorobenzyl)oxy)-3-fluorophenyl)acrylamide] cannot be ordered by IC50: > 2 µM for the first, > 2 µM for the second.

In the case of `C=CC(=O)Nc1ccc(OCc2cc(C(=O)OC)ccc2Cl)c(F)c1` [Compound 87, methyl 3-((4-acrylamido-2-fluorophenoxy)methyl)-4-chlorobenzoate], the IC50 is reported as 0.5 to 2 µM.
